Source: the NIST ThermoML archive (doi:10.1021/je0302304)
± gives the expanded uncertainty stated by the source.

Legend:
[1] = refractive index (Na D-line) (dimensionless); conditions: 101.33 kPa, Liquid, Standard Abbe refractometry
[2] = 101.32 kPa, Liquid
[3] = refractive index (Na D-line) (dimensionless); xn = mol fraction of the nth substance listed; conditions: 101.32 kPa, Liquid, Standard Abbe refractometry, x2 = 0
[4] = xn = mol fraction of the nth substance listed; conditions: 101.32 kPa, Liquid, x2 = 0

Row | refractive index ([1]; 288.15 K) | refractive index ([1]; 298.15 K) | refractive index ([1]; 308.15 K) | refractive index ([1]; 318.15 K) | mass density ([2]; 288.15 K) [kg/m3] | mass density ([2]; 298.15 K) [kg/m3] | mass density ([2]; 308.15 K) [kg/m3] | mass density ([2]; 318.15 K) [kg/m3] | refractive index ([3]; 288.15 K) | refractive index ([3]; 298.15 K) | refractive index ([3]; 308.15 K) | refractive index ([3]; 318.15 K) | mass density ([4]; 288.15 K) [kg/m3] | mass density ([4]; 298.15 K) [kg/m3] | mass density ([4]; 308.15 K) [kg/m3] | mass density ([4]; 318.15 K) [kg/m3] | SMILES
1 | 1.3824 ± 0.0005 | 1.3772 ± 0.0005 | 1.3722 ± 0.0005 | 1.3672 ± 0.0005 | 872.4 ± 0.3 | 861.5 ± 0.3 | 850.4 ± 0.4 | 839.2 ± 0.4 |  |  |  |  |  |  |  |  | COCCOC [1,2-dimethoxyethane]
2 | 1.4344 ± 0.0003 | 1.4303 ± 0.0003 | 1.4262 ± 0.0003 | 1.4221 ± 0.0003 | 1016 ± 0.3 | 1006.6 ± 0.3 | 997.4 ± 0.3 | 988.1 ± 0.3 |  |  |  |  |  |  |  |  | COCCOCCOCCOCCOC [2,5,8,11,14-pentaoxapentadecane]
3 | 1.425 ± 0.0005 | 1.4209 ± 0.0005 | 1.4167 ± 0.0005 | 1.4125 ± 0.0005 | 989.7 ± 0.4 | 980.1 ± 0.4 | 970.7 ± 0.4 | 961.1 ± 0.4 |  |  |  |  |  |  |  |  | COCCOCCOCCOC [2,5,8,11-tetraoxadodecane]
4 | 1.4101 ± 0.0005 | 1.4058 ± 0.0005 | 1.4012 ± 0.0005 | 1.3968 ± 0.0005 | 948.6 ± 0.3 | 938.7 ± 0.3 | 928.7 ± 0.3 | 918.6 ± 0.3 |  |  |  |  |  |  |  |  | COCCOCCOC [2,5,8-trioxanonane]
5 | 1.3632 ± 0.0005 | 1.3591 ± 0.0005 | 1.3551 ± 0.0005 | 1.3509 ± 0.0005 | 793.6 ± 0.5 | 785.2 ± 0.5 | 776.6 ± 0.5 | 767.9 ± 0.5 |  |  |  |  |  |  |  |  | CCO [ethanol]
6 |  |  |  |  |  |  |  |  | 1.3632 ± 0.0005 | 1.3591 ± 0.0005 | 1.3551 ± 0.0005 | 1.3509 ± 0.0005 | 793.6 ± 0.5 | 785.2 ± 0.5 | 776.6 ± 0.5 | 767.9 ± 0.5 | CCO [ethanol] + COCCOC
7 |  |  |  |  |  |  |  |  | 1.3632 ± 0.0005 | 1.3591 ± 0.0005 | 1.3551 ± 0.0005 | 1.3509 ± 0.0005 | 793.6 ± 0.5 | 785.2 ± 0.5 | 776.6 ± 0.5 | 767.9 ± 0.5 | CCO [ethanol] + COCCOCCOC
8 |  |  |  |  |  |  |  |  | 1.3632 ± 0.0005 | 1.3591 ± 0.0005 | 1.3551 ± 0.0005 | 1.3509 ± 0.0005 | 793.6 ± 0.5 | 785.2 ± 0.5 | 776.6 ± 0.5 | 767.9 ± 0.5 | CCO [ethanol] + COCCOCCOCCOC
9 |  |  |  |  |  |  |  |  | 1.3632 ± 0.0003 | 1.3591 ± 0.0003 | 1.3551 ± 0.0003 | 1.3509 ± 0.0003 | 793.6 ± 0.5 | 785.2 ± 0.5 | 776.6 ± 0.5 | 767.9 ± 0.5 | CCO [ethanol] + COCCOCCOCCOCCOC
